In US8134015B2, “Compound inhibiting in vivo phosphorous transport and medicine containing the same” (Kyowa Hakko Kirin Co., Ltd., priority 2003, dated 2012):

How the values were obtained:
rat NaPi-2b = biological target: T1, rat NaPi-2b (Rattus norvegicus, UniProt Q9JJ09); assay: Sodium-dependent phosphate uptake of Xenopus oocytes which expressed NaPi-2b (32P); format: cell-based; conditions: Xenopus oocytes expressing rat NaPi-2b, 32P radioactive phosphorus; read-out: IC50 (phosphate uptake inhibitory activity)
T1 construct: expressed in transfected cells; host or cells: Xenopus oocytes injected with cRNA
T1 sequence (Q9JJ09 1-695): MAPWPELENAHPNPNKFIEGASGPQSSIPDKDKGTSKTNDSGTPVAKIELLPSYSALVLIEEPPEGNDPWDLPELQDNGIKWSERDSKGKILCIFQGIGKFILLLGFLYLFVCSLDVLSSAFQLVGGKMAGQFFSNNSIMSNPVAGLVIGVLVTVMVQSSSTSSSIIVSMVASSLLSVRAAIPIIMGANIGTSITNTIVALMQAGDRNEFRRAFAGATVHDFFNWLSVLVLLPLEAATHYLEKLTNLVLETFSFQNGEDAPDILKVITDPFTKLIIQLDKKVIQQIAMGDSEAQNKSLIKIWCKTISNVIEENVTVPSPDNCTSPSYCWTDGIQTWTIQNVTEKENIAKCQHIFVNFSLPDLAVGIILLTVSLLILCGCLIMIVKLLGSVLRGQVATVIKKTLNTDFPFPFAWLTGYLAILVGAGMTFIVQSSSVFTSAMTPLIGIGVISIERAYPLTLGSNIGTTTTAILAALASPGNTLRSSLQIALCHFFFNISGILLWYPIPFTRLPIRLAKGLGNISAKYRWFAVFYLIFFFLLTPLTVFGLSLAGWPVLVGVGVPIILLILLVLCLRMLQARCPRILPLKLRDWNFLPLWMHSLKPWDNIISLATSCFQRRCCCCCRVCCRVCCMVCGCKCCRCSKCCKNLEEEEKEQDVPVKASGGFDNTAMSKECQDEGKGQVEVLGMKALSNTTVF
How it was run: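 Steps: rat NaPi-2b cDNA cloned from small intestine; cRNA made and injected into oocytes; 2-day expression; 32P phosphate uptake with compound; % inhibition at 300/100 μM taken from one curve.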

human NaPi-2a = biological target: T2, human NaPi-2a (Homo sapiens, UniProt Q06495); assay: Sodium-dependent phosphate uptake of Xenopus oocytes which expressed NaPi-2a (32P); format: cell-based; conditions: phosphate uptake, Xenopus oocytes expressing human NaPi-2a; five concentration levels
T2 construct: expressed in transfected cells
T2 sequence (Q06495 1-639): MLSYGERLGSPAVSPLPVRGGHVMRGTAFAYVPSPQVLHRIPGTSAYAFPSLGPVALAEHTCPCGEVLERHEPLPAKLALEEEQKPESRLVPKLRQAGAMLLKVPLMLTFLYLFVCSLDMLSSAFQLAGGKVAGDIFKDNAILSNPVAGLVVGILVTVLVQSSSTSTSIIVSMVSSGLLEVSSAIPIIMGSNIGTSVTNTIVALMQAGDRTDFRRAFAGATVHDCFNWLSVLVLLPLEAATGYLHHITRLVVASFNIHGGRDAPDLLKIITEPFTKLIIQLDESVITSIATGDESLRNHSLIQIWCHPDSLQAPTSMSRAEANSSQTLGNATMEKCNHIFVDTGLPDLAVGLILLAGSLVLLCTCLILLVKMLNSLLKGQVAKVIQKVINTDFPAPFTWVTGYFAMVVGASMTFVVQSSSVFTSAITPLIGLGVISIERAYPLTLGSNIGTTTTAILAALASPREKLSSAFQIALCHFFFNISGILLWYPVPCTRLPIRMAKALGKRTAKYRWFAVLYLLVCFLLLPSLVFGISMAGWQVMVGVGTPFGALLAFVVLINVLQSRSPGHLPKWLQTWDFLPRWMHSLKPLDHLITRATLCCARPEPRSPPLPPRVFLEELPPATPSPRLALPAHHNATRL
Excerpt: Experiment of Sodium-Dependent Phosphate Uptake of Xenopus oocytes which Expressed NaPi-2a
In the test, a group with the addition of choline chloride (Choline Cl) was used as a negative control for nonspecific uptake, and PFA (phosphonoformic acid) was used as a positive control for phosphate transport inhibition.

Compound | IC50 (rat NaPi-2b) | IC50 (human NaPi-2a)
O=C(Nc1ccc(Br)cc1C(=O)N/N=C/c1ccc(F)cc1)c1ccc(CSCCO)cc1 [Compound 262, N-[4-Bromo-2-(4-fluoro-benzylidene-hydrazinocarbonyl)-phenyl]-4-(2-hydroxy-ethylsulfanylmethyl)-benzamide] | 1.1 µM | 4.42 µM
O=C(O)CSCc1cccc(C(=O)Nc2ccc(N3CCCCC3)cc2C(=O)N/N=C/c2ccc(Cl)c(C(F)(F)F)c2)c1 [Compound 891, {3-[2-(4-Chloro-3-trifluoromethyl-benzylidene-hydrazinocarbonyl)-4-piperidin-1-yl-phenylcarbamoyl]-benzylsulfanyl}-acetic acid] | 1.47 µM | 13.9 µM
CCN(CC)CCN(CCN(CC)CC)Cc1cccc(C(=O)Nc2scc(C)c2C(=O)N/N=C/c2ccc(F)cc2)c1 [Compound 840, 3-{[Bis-(2-diethylamino-ethyl)-amino]-methyl}-N-[3-(4-fluoro-benzylidene-hydrazinocarbonyl)-4-methyl-thiophen-2-yl]-benzamide] | 6.95 µM | 34.1 µM
Cc1ccc(/C=N/NC(=O)c2cc(F)ccc2NC(=O)c2cccc(CN(CC(C)O)CC(C)O)c2)cc1C (stereo not shown) [Compound 985, 3-{[Bis-(2-hydroxy-propyl)-amino]-methyl}-N-[2-(3,4-dimethyl-benzylidene-hydrazinocarbonyl)-4-fluoro-phenyl]-benzamide] | < 3 µM | < 3 µM
COc1ccc(/C=N/NC(=O)c2c(C)csc2NC(=O)c2cccc(CN(CCO)CCO)c2)cc1 [Compound 791, 3-{[Bis-(2-hydroxy-ethyl)-amino]-methyl}-N-[3-(4-methoxy-benzylidene-hydrazinocarbonyl)-4-methyl-thiophen-2-yl]-benzamide] | 5.5 µM | 6.7 µM
CCN(CC)CCNCc1cccc(C(=O)Nc2sc3c(c2C(=O)N/N=C/c2ccc(F)cc2)CCC3)c1 [Compound 813, 3-[(2-Diethylamino-ethylamino)-methyl]-N-[3-(4-fluoro-benzylidene-hydrazinocarbonyl)-5,6-dihydro-4H-cyclopenta[b]thiophen-2-yl]-benzamide] | 6.25 µM | 35.6 µM
O=C(Nc1sc2ccccc2c1C(=O)N/N=C/c1ccc(Cl)c(C(F)(F)F)c1)c1cccc(CN2CCC(CO)CC2)c1 [Compound 802, N-[3-(4-Chloro-3-trifluoromethyl-benzylidene-hydrazinocarbonyl)-benzo[b]thiophen-2-yl]-3-(4-hydroxymethyl-piperidin-1-ylmethyl)-benzamide] | 1.2 µM | 5.96 µM
CCN(CC)CCNCc1cccc(C(=O)Nc2sc3c(c2C(=O)N/N=C/c2ccc(Cl)c(C(F)(F)F)c2)CCC3)c1 [Compound 814, N-[3-(4-Chloro-3-trifluoromethyl-benzylidene-hydrazinocarbonyl)-5,6-dihydro-4H-cyclopenta[b]thiophen-2-yl]-3-[(2-diethylamino-ethylamino)-methyl]-benzamide] | < 3 µM | 18.3 µM
CCN(CC)CCN(CCN(CC)CC)Cc1cccc(C(=O)Nc2scc(C)c2C(=O)N/N=C/c2ccc(C)cc2)c1 [Compound 839, 3-{[Bis-(2-diethylamino-ethyl)-amino]-methyl}-N-[4-methyl-3-(4-methyl-benzylidene-hydrazinocarbonyl)-thiophen-2-yl]-benzamide] | 5.04 µM | 23.2 µM
O=C(Nc1sc2c(c1C(=O)N/N=C/c1ccc(F)cc1)CCCC2)c1cccc(CN2CCC(CO)CC2)c1 [Compound 641, N-[3-(4-Fluoro-benzylidene-hydrazinocarbonyl)-4,5,6,7-tetrahydro-benzo[b]thiophen-2-yl]-3-(4-hydroxymethyl-piperidin-1-ylmethyl)-benzamide] | 2.92 µM | 7.53 µM
Cc1ccc(/C=N/NC(=O)c2c(NC(=O)c3cccc(CN4CCC(O)CC4)c3)sc3c2CCCC3)cc1 [Compound 634, 3-(4-Hydroxy-piperidin-1-ylmethyl)-N-[3-(4-methyl-benzylidene-hydrazinocarbonyl)-4,5,6,7-tetrahydro-benzo[b]thiophen-2-yl]-benzamide] | 1.74 µM | 16.9 µM
CCN(CC)CCNCc1cccc(C(=O)Nc2sc3c(c2C(=O)N/N=C/c2ccc(C)cc2)CCC3)c1 [Compound 811, 3-[(2-Diethylamino-ethylamino)-methyl]-N-[3-(4-methyl-benzylidene-hydrazinocarbonyl)-5,6-dihydro-4H-cyclopenta[b]thiophen-2-yl]-benzamide] | 9.11 µM | 37.2 µM

Next, values leading:

IC50 (rat NaPi-2b) | IC50 (human NaPi-2a) | Compound
< 1 µM | 9.07 µM | CC(O)CN(Cc1cccc(C(=O)Nc2sc3c(c2C(=O)N/N=C/c2ccc(F)cc2)CCC3)c1)CC(C)O (stereo not shown) [Compound 807, 3-{[Bis-(2-hydroxy-propyl)-amino]-methyl}-N-[3-(4-fluoro-benzylidene-hydrazinocarbonyl)-5,6-dihydro-4H-cyclopenta[b]thiophen-2-yl]-benzamide]
< 1 µM | 3.53 µM | Cc1ccc(/C=N/NC(=O)c2c(NC(=O)c3cccc(CN(CC(C)O)CC(C)O)c3)sc3c2CCCC3)cc1C (stereo not shown) [Compound 627, 3-{[Bis-(2-hydroxy-propyl)-amino]-methyl}-N-[3-(3,4-dimethyl-benzylidene-hydrazinocarbonyl)-4,5,6,7-tetrahydro-benzo-[b]thiophen-2-yl]-benzamide]
< 1 µM | 3.5 µM | CC(O)CN(Cc1cccc(C(=O)Nc2sc3c(c2C(=O)N/N=C/c2cccc(F)c2)CCCC3)c1)CC(C)O (stereo not shown) [Compound 630, 3-{[Bis-(2-hydroxy-propyl)-amino]-methyl}-N-[3-(3-fluoro-benzylidene-hydrazinocarbonyl)-4,5,6,7-tetrahydro-benzo[b]thiophen-2-yl]-benzamide]
< 0.3 µM | 7.22 µM | CCN(CC)CCSCc1cccc(C(=O)Nc2ccc(N3CCCCC3)cc2C(=O)N/N=C/c2ccc(Cl)c(C(F)(F)F)c2)c1 [Compound 878, N-[2-(4-Chloro-3-trifluoromethyl-benzylidene-hydrazinocarbonyl)-4-piperidin-1-yl-phenyl]-3-(2-diethylamino-ethylsulfanylmethyl)-benzamide]
< 0.3 µM | 5.52 µM | O=C(Nc1ccc(N2CCCCC2)cc1C(=O)N/N=C/c1ccc(F)cc1)c1cccc(CN2CCc3nc4ncccc4cc3C2)c1 [Compound 895, 3-(7,8-Dihydro-5H-1,6,9-triaza-anthracen-6-ylmethyl)-N-[2-(4-fluoro-benzylidene-hydrazinocarbonyl)-4-piperidin-1-yl-phenyl]-benzamide]
0.39 µM | 2.25 µM | COc1ccc(NC(=O)c2cccc(CSCC(O)CO)c2)c(C(=O)N/N=C/c2ccc(Cl)c(C(F)(F)F)c2)c1 (stereo not shown) [Compound 1020, N-[2-(4-Chloro-3-trifluoromethyl-benzylidene-hydrazinocarbonyl)-4-methoxy-phenyl]-3-(2,3-dihydroxy-propylsulfanyl-methyl)-benzamide]
0.39 µM | 1.6 µM | CCN(CC)CCN(C)Cc1cccc(C(=O)Nc2ccc(N3CCCCC3)cc2C(=O)N/N=C/c2ccc(C)cc2)c1 [Compound 859, 3-{[(2-Diethylamino-ethyl)-methyl-amino]-methyl}-N-[2-(4-methyl-benzylidene-hydrazinocarbonyl)-4-piperidin-1-yl-phenyl]-benzamide]
0.1 µM | 1.41 µM | Cc1ccc(/C=N/NC(=O)c2cc(Cl)ccc2NC(=O)c2cccc(CSCC(O)CO)c2)cc1C (stereo not shown) [Compound 1009, N-[4-Chloro-2-(3,4-dimethyl-benzylidene-hydrazinocarbonyl)-phenyl]-3-(2,3-dihydroxy-propylsulfanylmethyl)-benzamide]
